Experimental data: EPA's ToxValDB 9.5 (doi:10.2903/j.efsa.2018.5151)
Converted amounts (≈) assume the structure as drawn.

How the values were obtained:
[1] = tested on: Anas platyrhynchos; settings: acute; oral; unspecified; mortality
[2] = tested on: Apis mellifera; settings: acute, mortality
[3] = tested on: Bibionidae; settings: chronic/long-term; duration: 28 days
[4] = tested on: Colinus virginianus; settings: reproduction developmental
[5] = tested on: Daphnia magna; settings: chronic/long-term; duration: 21 days
[6] = tested on: Folsomia candida; settings: chronic/long-term; duration: 28 days; reproduction
[7] = tested on: Oncorhynchus mykiss
[8] = tested on: Rattus norvegicus; settings: acute; oral; mortality
[9] = tested on: Aphidius rhopalosiphi; assay: LR50; higher = less toxic

COC(=O)Nc1cccc(OC(=O)Nc2cccc(C)c2)c1 [Phenmedipham]
LD50 [1]: > 2500 mg/kg-day
LD50 ([2]; dermal): > 100 µg/piece
LD50 ([2]; oral, unspecified): > 105 µg/piece
NOEC [3]: ≥ 6.86 mg/L
NOAEL [4]: 121 mg/kg-day
NOEC [5]: 0.005 mg/L
NOEC [6]: 500 mg/kg
LC50 ([7]; acute, duration: 96 hours, mortality): 1.84 mg/L (≈ 6.13 µM)
NOEC ([7]; chronic/long-term, duration: 92 days, growth): 0.041 mg/L
LD50 [8]: > 5000 mg/kg-day
LR50 ([9]; acute, mortality): > 294 g/ha
LR50 ([9]; chronic/long-term, duration: 14 days, no effects): > 960 g/ha
